According to EP1224486B1, “USE OF DOUBLE-QUANTUM 1H-NMR SPECTROSCOPY FOR THE IDENTIFICATION OF LIGANDS INTERACTING WITH TARGET BIOMOLECULES” (Pharmacia Italia S.p.A., priority 1999, dated 2001):
Each block holds one molecule with its values, some of them ahead of it. Non-standard residues stand in square brackets, D forms with d. Residues, ends and D or L forms follow the SMILES beside them. pY = N[C@@H](Cc1ccc(OP(=O)(O)O)cc1)C(=O)O

Columns and labels:
[1] = target: T1, Grb2-SH2 domain (Homo sapiens, UniProt P62993); test: 2D 1H double-quantum (DQ) NMR screening of compound mixtures with and without the protein; type: binding; conditions: 25°C, pH 6.2; for identification as ligand by comparison of 2D DQ spectra and 2D DQ difference spectrum: mixture 2, 300 µM each compound, 50 µM protein (6:1)
T1 construct: The SH2 domain of Grb2 was expressed in E. coli as GST fusion proteins; GST (cleaved yes); made in house; host or cells: E. coli
T1 sequence (P62993 60-152 limits assumed): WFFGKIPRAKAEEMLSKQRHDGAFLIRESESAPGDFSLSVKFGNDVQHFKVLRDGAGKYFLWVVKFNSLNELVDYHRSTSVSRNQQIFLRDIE
Protocol: The feasibility of the invention in identifying ligands was tested with mixtures of compounds against the Grb2-SH2 domain. […] Figure 2 illustrates the DQ fingerprint region of a compound mixture (mixture 1) recorded with the pulse sequence of Figure 1a in the absence (a) and in the presence (b) of the protein. […] The NH protein resonances are not visible in Figure 2 (b) due to their short T (SQ)/(2) [formula] and T^DQ and the lower protein concentration (50 µM). The protein aromatic resonances have a longer T (SQ)/(2) [formula] and T^DQ compared to the amide resonances and their presence in the DQ spectrum may interfere with the observation of the ligand signals. Figure 3(a) illustrates the aromatic region of the 2D relaxation weighted DQ spectrum for mixture 1. Figures 3 (b) and (c) depict the same spectral region of the 2D DQ and relaxation weighted DQ spectrum of mixture 1 in the presence of the Grb2 SH2 domain, respectively. […] The large linewidth of all the protein resonances and the antiphase character of the DQ multiplets along ω2 results in complete cancellation of the positive and negative lobes. […] Only the compound resonances that display changes in intensity or chemical shift in the presence of the protein will be visible in the difference spectrum.
All the spectra were acquired at 25°C with the pulse sequences of Figure 1 using a Varian Inova 600 MHz spectrometer equipped with a 5 mm triple-resonance inverse probe and actively shielded x, y, and z- gradient coils. The DQ spectra were collected using 8 to 32 transients for each of the 256 t1 increments (128 t1 values for both the echo and antiecho pathway selections) and with 2048 points in t2. The data were multiplied with a cosine window function in both dimensions prior to the Fourier transformation.
The excitation DQ period τ was 42 ms long and the angle β of the detection pulse was set to 45° and 135° for the antiecho and echo coherence pathway selection, respectively. The coherence selection gradients G1 to G3 were set at the magic angle using only the x and z components of the gradients. The first two PFGs applied at the beginning and end of the excitation double-quantum period were weak gradients for radiation damping suppression. The 2D spectral differencing was performed with the software provided by Varian. The scaling factor used in the examples reported here was -1. However it can be adjusted manually for allowing small variations in concentration of the protein-ligand mixture and ligand mixture solutions.

[2] = tested on: Grb2-SH2 domain; test: 2D 1H double-quantum NMR screening of compound mixtures for ligand binding; conditions: mixture 2, each compound 300 µM, protein 50 µM (6:1), 25°C, pH 6.2
From the text: From a practical point of view, the steps involved in the detection of binding are preferably the following: • a) mixing together from 1 to n chemical compounds not interacting with each other; • b) recording a two-dimensional ^1H DQ or DQC (refocussed or not) relaxation weighted DQ spectrum (preferentially version with PFG) for the said compound mixture in the absence of the target biomolecule; • c) mixing the said compound mixture with the target biomolecule where each of the molecules comprising the mixture is preferably present at a molar ratio to the target biomolecule of about 1:1 to about 20:1 • d) recording a two-dimensional ^1H DQ or DQC (refocussed or not) relaxation weighted DQ spectrum (preferentially version with PFG) for the said compound mixture in the presence of the target biomolecule; • e) comparing the spectra recorded in steps b) and d) to detect which, if any of the chemical entities of the mixture, has interacted with the target biomolecule; and, optionally • f) recording a two-dimensional ^1H DQ or DQC (refocussed or not) relaxation weighted DQ spectrum (preferentially version with PFG) for each of the compounds which have been detected in step (e) above, with and without the target protein.
The feasibility of the invention in identifying ligands was tested with mixtures of compounds against the Grb2-SH2 domain. […]

Molecule: CC(=O)N[C@@H](Cc1ccc(OP(=O)(O)O)cc1)C(=O)N[C@H](C(N)=O)C(C)C [Ac-Tyr(PO3H2)-Val-NH2] (Ac-[pY]-Val-NH2)
identification as ligand by comparison of 2D DQ spectra and 2D DQ difference spectrum [1]: potential very weak ligand
identification as ligand by comparison of 2D DQ spectra and 2D DQ difference spectrum ([1]; listed as compound B): possible weak interaction

Molecule: c1ccc2[nH]ccc2c1 [Indole, indole]
identification as ligand (2D DQ spectra and 2D DQ difference spectrum with/without protein) [2]: do not interact with the protein

The remaining lines, values ahead:

identification as ligand by comparison of 2D DQ spectra ([1]; mixture 1, 100 µM each compound, 50 µM protein (2:1)): ligand for Grb2-SH2
Molecule: Ac-(N-Me)Phe(p-CH2PO3H2)-Val-Asn-NH-CH2-CH(CH3)2

identification as ligand by comparison of 2D DQ spectra and 2D DQ difference spectrum [1]: potent ligand
Molecule: Ac-Tyr(PO3H2)-Val-NH-CH2-CH2-CONH2

identification as ligand by comparison of 2D DQ spectra and 2D DQ difference spectrum [1]: do not interact with the protein
Molecule: Ac-Tyr-Val-Asn-Val-OH (Ac-YVNV-OH)
